Data on one molecule can be found in US20240173273A1 (priority 2021, published 2024).

What all share (assay type): cell-based
The subject of assay [1] is SARS-COV-2. Description: microbe, parasite or virus in culture.
In assay [2] the test system is SARS-COV-2.
The subject of assay [3] is SARS-COV-2. The source holds these as a separate data set.
In assay [4] the test system is HECT E3 ligases, ACE2, TMPRSS2. Put plainly: Expression of HECT E3 ligases, ACE2 and TMPRSS2 in Vero E6 and Calu-3a cells (RT-qPCR).
Assay [5] relates to inflammatory response induced by SARS-COV-2. Description: Inflammatory and immune-sensing gene expression in infected Calu-3a cells. The settings on record: data not shown.

Consider `CC(C)(CO)[C@@H](O)C(=O)NCCC(=O)NCCSSCCNC(=O)CCNC(=O)[C@H](O)C(C)(C)CO` [pantethine, (2R,2′ R)—N,N′-(3,12-Dioxo-7,8-dithia-4,11-diazatetradecane-1,14-diyl)bis(2,4-dihydroxy-3,3-dimethylbutanamide)], for which the “infection of Vero E6 cells by SARS-COV-2” value with SARS-COV-2 [1] is “reduced significantly and dose dependently”. Moreover, the inhibition at 100 µM in the assay on SARS-COV-2 [1] (Severe acute respiratory syndrome coronavirus 2, Vero C1008, 72 h, 100 μM, read-out: inhibition of the replication of SARS-COV-2 (Spike protein staining)) was roughly 76%. Moreover, in the assay with SARS-COV-2 [1] (Severe acute respiratory syndrome coronavirus 2, Vero C1008, 72 h, 1000 μM, read-out: inhibition of the replication of SARS-COV-2 (Spike protein staining)), the inhibition at 1000 µM is roughly 98%. Further, the “expression of the viral Spike and Nucleocapsid proteins within infected cells” value in the assay with SARS-COV-2 [2] is on record as “reduce significantly”. Besides, the “infection of Calu-3a cells by SARS-COV-2” value with SARS-COV-2 [3] was “reduced significantly and dose dependently”. For the same molecule, in assay [4], the “ACE2 and TMPRSS2 expression” value was “no significant effect”; the “HECT E3 ligases expression” value is on record as “no effects”; the “infection-induced increase of TMPRSS2 expression” value is “inhibited”. The “HECT E3 ligase-increase induced by SARS-CoV-2 infection” value in assay [4] (infected cells in vitro, data not shown) is given as “decreased”. In addition, the “inflammatory response induced by SARS-COV-2” value in assay [5] is “reduced”.
